Reference: US8338339B2, “Process for inhibition of proteolytic activity during the ensiling of forages” (The United States of America as represented by the …, priority 2003, dated 2012)

Tests used:
Type in all cases: biochemical
[1] = system: proteolytic activity in red clover leaf extracts; experiment: Proteolysis (release of free amino acids, ninhydrin assay) in red clover leaf extracts; settings: desalted red clover extract + 3 mM CA, 37° C.
Experimental: Clarified extracts of red clover leaves were made in 50 mM MES, pH 6.5 (crude extract in Table 1). Where indicated, extracts were desalted using a Sephadex G-25 spin column equilibrated with 50 mM MES, pH 6.5, to remove low molecular weight molecules (i.e. o-diphenols). Extract protein concentrations were adjusted to 2 mg/ml with buffer. Where indicated, the o-diphenol in the form of caffeic acid (CA) was added to a final concentration of 3 mM. Extracts were incubated at 37° C. […] Data are the average of three experiments using independent tissue samples ±standard error.

[2] = system: proteolysis in control-alfalfa leaf extracts (no PPO transgene); experiment: Proteolysis (amino acid release) in control-alfalfa leaf extracts
Experimental: (§1) Clarified extracts of red clover leaves were made in 50 mM MES, pH 6.5 (crude extract in Table 1). Where indicated, extracts were desalted using a Sephadex G-25 spin column equilibrated with 50 mM MES, pH 6.5, to remove low molecular weight molecules (i.e. o-diphenols). Extract protein concentrations were adjusted to 2 mg/ml with buffer. Where indicated, the o-diphenol in the form of caffeic acid (CA) was added to a final concentration of 3 mM. Extracts were incubated at 37° C. At the indicated times, samples were removed, trichloroacetic acid (TCA) added to 5%, and release of free amino acids (a measure of proteolytic activity) into the TCA-soluble supernatant was determined by ninhydrin assay. Data are the average of three experiments using independent tissue samples ±standard error.
(§2) Proteolysis was measured in leaf extracts essentially as described in Experiment 1 above. The o-diphenol in the form of caffeic acid was added to 3 mM caffeic acid. Data are the average of three experiments using independent tissue samples ±standard error.
(§3) Proteolysis after a four hour incubation at 37° C. was measured essentially as described for Experiment 1 above in leaf extracts of either transgenic alfalfa expressing the red clover PPO1 gene (PPO-alfalfa) or control-alfalfa not expressing an exogenous PPO gene (control-alfalfa) using the o-diphenol in the form of caffeic acid at various concentrations up to 10 mM. Data are the average of three experiments using independent tissue samples ±standard error.
(§4) Proteolysis in the reaction mixtures following a four hour incubation at 37° C. was measured essentially as described above for reaction mixture with and without caffeic acid added to 3 mM (+CA and −CA, respectively). Data are the average of three experiments using independent tissue samples ±standard error.
(§5) Proteolysis after a four hour incubation at 37° C. was measured (as described in Example 1 above) of alfalfa for reaction mixtures containing either 250 mU/ml PPO activity (protein adjusted to 2 mg/ml with control alfalfa extract) or a control alfalfa extract (2 mg/ml protein). Various o-diphenols were present in the reaction mixtures at 3 mM, including caffeic acid (CA) hydrocaffeic acid (HCA), chlorogenic acid (CGA), catechol, and (−)-epicatichin.

[3] = system: proteolysis in leaf extracts of transgenic alfalfa expressing the red clover PPO1 gene; experiment: Proteolysis (amino acid release) in PPO-alfalfa leaf extracts / alfalfa extracts with PPO activity; settings: for inhibition of proteolysis: 3 mM caffeic acid
Experimental: as §1, §2, §3, §4, §5

[4] = system: proteolysis in oat leaf extracts; experiment: Proteolysis (amino acid release) in oat leaf extracts; settings: for Mean amino acid release: with 3 mM Caffeic Acid
Experimental: as §1
Proteolysis was measured in oat leaf extracts or oat leaf extracts with PPO activity added (125 mU/ml). The added PPO activity was from an extract of red clover PPO1-expressing alfalfa. […] Total protein was 1.75 mg/ml. In Oat+alfalfa extracts, oat protein was present at 1.4 mg/ml and alfalfa protein was present at 0.35 mg/ml. Caffeic acid was present at 3 mM. Results in Table 6 below are for the average of two experiments using independent tissue samples.

[5] = system: polyphenol oxidase (PPO), red clover PPO1 gene product; experiment: PPO activity (caffeic acid oxidized per minute, TNB protocol); settings: PPO1 expressed in transgenic alfalfa
Experimental: The o-diphenol compound is applied to forage at a rate ranging from about 5 to about 30 micromoles per gram of fresh weight forage and the oxidase is applied at a rate of about 0.1 to about 1 unit per gram of fresh weight forage. One unit is defined as one micromole of caffeic acid oxidized per minute by the following protocol.
The protocol used to determine activity is carried out at 25° C. The buffer is 20 mM TRIS-acetate pH 7.0. The caffeic acid is 100 mM in ethyl alcohol. […] The decrease in absorbance at 412 nm (TNB) from 2-5 minutes is used to determine PPO activity.
PPO activity present in reaction mixtures was varied from 0 to 500 mU/ml of extract by mixing extracts from PPO- and control-alfalfa (1 U=1 micromole caffeic acid oxidized/min; red clover and PPO-Alfalfa have 0.5-5 U activity/mg protein) to achieve a final protein concentration of 2 mg/ml. Proteolysis in the reaction mixtures following a four hour incubation at 37° C. was measured essentially as described above for reaction mixture with and without caffeic acid added to 3 mM (+CA and −CA, respectively). […]

[6] = Control-Alfalfa extract 2 mg/ml protein, substrate 3 mM, 37° C.
[7] = PPO-Alfalfa, 250 mU/ml PPO activity, substrate 3 mM, 37° C.

Q: What does the source list for `O=C(O)/C=C/c1ccc(O)c(O)c1` [CA, caffeic acid]?
A: release of free amino acids ([1]; 0 h): 0.00 ± 0.00; release of free amino acids ([1]; 1 h): 0.04 ± 0.01; release of free amino acids ([1]; 2 h): 0.06 ± 0.01; release of free amino acids ([1]; 3 h): 0.09 ± 0.01; release of free amino acids ([1]; 4 h): 0.11 ± 0.02; Mean four hour Amino Acid Release ([2]; 3 mM Caffeic Acid, PPO 0 mU/ml (control-alfalfa extract), protein 2 mg/ml): 0.79 ± 0.10 µmol/mg; Mean four hour Amino Acid Release [2, 6]: 0.75 ± 0.08 µmol/mg; Mean four hour Amino Acid Release ([2]; Control-Alfalfa, caffeic acid 0.5 mM, 37° C.): 0.75 ± 0.09 µmol/mg; Mean four hour Amino Acid Release ([2]; Control-Alfalfa, caffeic acid 1 mM, 37° C.): 0.69 ± 0.06 µmol/mg; Mean four hour Amino Acid Release ([2]; Control-Alfalfa, caffeic acid 2 mM, 37° C.): 0.70 ± 0.07 µmol/mg; Mean four hour Amino Acid Release ([2]; Control-Alfalfa, caffeic acid 3 mM, 37° C.): 0.66 ± 0.09 µmol/mg; Mean four hour Amino Acid Release ([2]; Control-Alfalfa, caffeic acid 4 mM, 37° C.): 0.75 ± 0.07 µmol/mg; Mean four hour Amino Acid Release ([2]; Control-Alfalfa, caffeic acid 5 mM, 37° C.): 0.75 ± 0.11 µmol/mg; Mean four hour Amino Acid Release ([2]; Control-Alfalfa, caffeic acid 10 mM, 37° C.): 0.65 ± 0.06 µmol/mg; effect on proteolysis ([2]; caffeic acid 3 mM added to control alfalfa extracts): no significant effect; effect on proteolysis ([2]; in the absence of PPO activity, caffeic acid up to 10 mM): little effect; Mean four hour Amino Acid Release ([3]; 3 mM Caffeic Acid, PPO 16 mU/ml, protein 2 mg/ml): 0.36 ± 0.03 µmol/mg; Mean four hour Amino Acid Release ([3]; 3 mM Caffeic Acid, PPO 32 mU/ml, protein 2 mg/ml): 0.34 ± 0.05 µmol/mg; Mean four hour Amino Acid Release ([3]; 3 mM Caffeic Acid, PPO 62.5 mU/ml, protein 2 mg/ml): 0.21 ± 0.02 µmol/mg; Mean four hour Amino Acid Release ([3]; 3 mM Caffeic Acid, PPO 125 mU/ml, protein 2 mg/ml): 0.15 ± 0.03 µmol/mg; Mean four hour Amino Acid Release ([3]; 3 mM Caffeic Acid, PPO 250 mU/ml, protein 2 mg/ml): 0.12 ± 0.01 µmol/mg; Mean four hour Amino Acid Release ([3]; 3 mM Caffeic Acid, PPO 500 mU/ml, protein 2 mg/ml): 0.06 ± 0.03 µmol/mg; inhibition of proteolysis ([3]; >125 mU/ml PPO activity, four hour): > 80%; inhibition of proteolysis ([3]; PPO activity 16 mU/ml, four hour): > 50%; Mean four hour Amino Acid Release [3, 7]: 0.12 ± 0.03 µmol/mg; Mean four hour Amino Acid Release ([3]; PPO-Alfalfa, caffeic acid 0.5 mM, 37° C.): 0.32 ± 0.03 µmol/mg; Mean four hour Amino Acid Release ([3]; PPO-Alfalfa, caffeic acid 1 mM, 37° C.): 0.25 ± 0.03 µmol/mg; Mean four hour Amino Acid Release ([3]; PPO-Alfalfa, caffeic acid 2 mM, 37° C.): 0.16 ± 0.03 µmol/mg; Mean four hour Amino Acid Release ([3]; PPO-Alfalfa, caffeic acid 3 mM, 37° C.): 0.11 ± 0.02 µmol/mg; Mean four hour Amino Acid Release ([3]; PPO-Alfalfa, caffeic acid 4 mM, 37° C.): 0.08 ± 0.02 µmol/mg; Mean four hour Amino Acid Release ([3]; PPO-Alfalfa, caffeic acid 5 mM, 37° C.): 0.06 ± 0.01 µmol/mg; Mean four hour Amino Acid Release ([3]; PPO-Alfalfa, caffeic acid 10 mM, 37° C.): 0.04 ± 0.02 µmol/mg; proteolytic inhibition compared to extracts to which no caffeic acid was added ([3]; caffeic acid 0.5 mM, PPO-alfalfa extract, four hour): > 50%; reduction in proteolysis ([3]; caffeic acid 3 mM added to PPO-alfalfa extract): ~80%; proteolytic inhibition ([3]; caffeic acid 3 mM, PPO-alfalfa extract, four hour): > 80%; proteolytic inhibition ([4]; 3 mM caffeic acid with exogenous PPO added (125 mU/ml) to oat extract): ~50%; Mean amino acid release ([4]; Oat extract, time 0): 0.00 ± 0.00 μmol/mg protein; Mean amino acid release ([4]; Oat extract, time 1): 0.82 ± 0.18 μmol/mg protein; Mean amino acid release ([4]; Oat extract, time 2): 1.39 ± 0.09 μmol/mg protein; Mean amino acid release ([4]; Oat extract, time 3): 1.73 ± 0.15 μmol/mg protein; Mean amino acid release ([4]; Oat extract, time 4): 1.79 ± 0.07 μmol/mg protein; Mean amino acid release ([4]; Oat/Control-Alf extract, time 0): 0.00 ± 0.00 μmol/mg protein; Mean amino acid release ([4]; Oat/Control-Alf extract, time 1): 0.75 ± 0.17 μmol/mg protein; Mean amino acid release ([4]; Oat/Control-Alf extract, time 2): 1.42 ± 0.06 μmol/mg protein; Mean amino acid release ([4]; Oat/Control-Alf extract, time 3): 1.73 ± 0.05 μmol/mg protein; Mean amino acid release ([4]; Oat/Control-Alf extract, time 4): 1.91 ± 0.05 μmol/mg protein; Mean amino acid release ([4]; Oat/PPO-Alf (PPO 125 mU/ml), time 0): 0.00 ± 0.00 μmol/mg protein; Mean amino acid release ([4]; Oat/PPO-Alf (PPO 125 mU/ml), time 1): 0.60 ± 0.20 μmol/mg protein; Mean amino acid release ([4]; Oat/PPO-Alf (PPO 125 mU/ml), time 2): 0.80 ± 0.13 μmol/mg protein; Mean amino acid release ([4]; Oat/PPO-Alf (PPO 125 mU/ml), time 3): 0.82 ± 0.11 μmol/mg protein; Mean amino acid release ([4]; Oat/PPO-Alf (PPO 125 mU/ml), time 4): 1.02 ± 0.22 μmol/mg protein; lower proteolysis than counterparts lacking caffeic acid ([4]; all oat reactions containing 3 mM CA): 10-30%

Q: What does the source list for `O=C(/C=C/c1ccc(O)c(O)c1)O[C@@H]1C[C@](O)(C(=O)O)C[C@@H](O)[C@H]1O` [CGA, chlorogenic acid]?
A: Mean four hour Amino Acid Release [2, 6]: 0.80 ± 0.06 µmol/mg; Mean four hour Amino Acid Release [3, 7]: 0.26 ± 0.06 µmol/mg

Q: `Oc1ccccc1O` [Catechol, catechol] was tested. Which “Mean four hour Amino Acid Release” value [2, 6] did it give?
A: 0.71 ± 0.10 µmol/mg

Q: And the “proteolytic inhibition (in words)” value ([3]; 3 mM, PPO present (250 mU/ml), four hour)?
A: significant proteolytic inhibition

Q: And the “Mean four hour Amino Acid Release” value [3, 7]?
A: 0.37 ± 0.05 µmol/mg

Q: And the “substrate quality for the red clover PPO1 gene product” value [5]?
A: relatively poor substrate

Q: `O=C(O)CCc1ccc(O)c(O)c1` [HCA, hydrocaffeic acid] was tested. Which “Mean four hour Amino Acid Release” value [2, 6] did it give?
A: 0.70 ± 0.07 µmol/mg

Q: And the “Mean four hour Amino Acid Release” value [3, 7]?
A: 0.25 ± 0.07 µmol/mg

Q: Which “Mean four hour Amino Acid Release” value [2, 6] does the source give for `Oc1cc(O)c2c(c1)O[C@H](c1ccc(O)c(O)c1)[C@H](O)C2` [Epicatichin, (−)-epicatichin] here?
A: 0.64 ± 0.08 µmol/mg

Q: What about the “Mean four hour Amino Acid Release” value [3, 7] of the same compound?
A: 0.25 ± 0.08 µmol/mg
